Data from US20030017567A1, “Biological sample processing methods and compositions that include surfactants” (3M Innovative Properties Company, priority 2001, published 2003).
Marks after values point to notes of the source that are not given here.

How the values were obtained:
[1] = biological target: T1, AMPLITAQ DNA polymerase (Taq polymerase) (Thermus aquaticus, UniProt P19821); test: PCR amplification of PERV protease fragment (327 bp) in presence of dye/surfactant; product on agarose gel or quantitated with Agilent 2100 Bioanalyzer; type: biochemical
T1 construct: purchased Applied Biosystems, Foster City, Calif
Procedure: Typically, a fresh stock solution of 5 milligrams (mg) of a water-insoluble near-infrared dye (NIR dye) was dissolved in 50 microliters (μL) of dimethylsulfoxide (DMSO) and brought up in water to a final volume of 1 milliliter (mL). This was then diluted out to various concentrations of dye. The diluted dye (typically 0.2 mg/mL) was then added to a surfactant solution (typically 4 wt-%) to form a complex. The complex was added to a PCR reaction.
PCR reactions were set up for a conserved sequence (327 bp) in the protease region of the genome of porcine endogenous retrovirus using a plasmid containing the PERV protease fragment, a forward primer and a reverse primer designed using a primer express program from Applied Biosystems, and AMPLITAQ DNA polymerase cocktail (commercially available from Applied Biosystems, Foster City, Calif.) and cycled in a thermocycler (9700, Applied Biosystems). The PCR reactions were typically carried out in 25-μL volumes. The NIR dye/surfactant mixture was added to the PCR cocktail to give the desired concentration of dye and surfactant in a total volume of 25 μL. A typical PCR cocktail contains 10x buffer, 2.5 μL; dNTPs, 2.0 μL (200 μM of each); forward primer, 0.5 μL (200 nM); reverse primer, 0.5 μL (200 nM); template DNA, 1.0 (1 ng/μL); Amplitaq, 0.25 μL (1.25 units); sterile water, 18.25 μL.
The products of PCR reactions were run on 1% agarose gel containing ethidium bromide and visualized using an ALPHA IMAGER (Alpha Innotech Corp., San Leandro, Calif.). […] However, a higher concentration of dye (0.1 mg/mL) for effective heating was needed. Thus, for all further PCR experiments, a dye concentration of 0.1 mg/mL or higher was used. […] Taq polymerase was tested from different manufacturers (Promega Corp., Madison, Wis.; Roche Biochemicals, Indianapolis, Ind.; Eppendorf, Scientific Inc., Westbury, N.Y.; Sigma, St. Louis, Mo.) and all the Taq polymerases were inhibited by 785 WS and SDA 8080.
In order to find out the optimum concentration of surfactant for PCR with NIR dye (785 WS and SDA 8080), the surfactant concentration in PCR reaction was varied from 0.1 wt-% to 4 wt-%. The PCR product formed was quantitated using DNA 7500 Labchip kit in Agilent 2100 Bioanalyzer (Agilent Inc, Paloalto, Calif.). The results shown in Table 3 indicate that increasing the concentration of surfactant relative to dye assists in the formation of PCR product.
A variety of dyes (NIR dyes such as IR782, IR768, SDA 2141, SDA8327, IR 830 WS, fluorescent dyes like oligreen and visible dyes like dichlorophenol, indophenol, saffranin, crystal violet, and commercially available food coloring) at typical concentrations of 0.1 or 0.2 mg/mL were allowed to interact with 4 wt-% PLURONIC F127 and each mixture was added to the PCR cocktail. The reaction was set up to amplify PERV protease fragment as described in Example 2 and the products of the reaction were analyzed by agarose gel electrophoresis.

Taq polymerase = Taq polymerase (Thermus aquaticus, UniProt P19821); test: Quantitative PCR using TaqMan probes or Sybr green; type: biochemical; details: with SDA 8080 0.2 mg/mL or 785 WS 0.1 mg/mL, both cases
T4 DNA ligase = biological target: T2, T4 DNA ligase (Enterobacteria phage T4, UniProt P00970); test: DNA ligation reaction, read out by E. coli DH10B transformant colonies and by PCR of ligated products; type: biochemical; details: 4 wt-% PLURONIC for 785 WS; 4 wt-% TWEEN-20 for SDA 8080; similar number of colonies as control
T2 construct: purchased Life Technologies, Inc, Gaithesburg, Md
T2 sequence (P00970 1-487): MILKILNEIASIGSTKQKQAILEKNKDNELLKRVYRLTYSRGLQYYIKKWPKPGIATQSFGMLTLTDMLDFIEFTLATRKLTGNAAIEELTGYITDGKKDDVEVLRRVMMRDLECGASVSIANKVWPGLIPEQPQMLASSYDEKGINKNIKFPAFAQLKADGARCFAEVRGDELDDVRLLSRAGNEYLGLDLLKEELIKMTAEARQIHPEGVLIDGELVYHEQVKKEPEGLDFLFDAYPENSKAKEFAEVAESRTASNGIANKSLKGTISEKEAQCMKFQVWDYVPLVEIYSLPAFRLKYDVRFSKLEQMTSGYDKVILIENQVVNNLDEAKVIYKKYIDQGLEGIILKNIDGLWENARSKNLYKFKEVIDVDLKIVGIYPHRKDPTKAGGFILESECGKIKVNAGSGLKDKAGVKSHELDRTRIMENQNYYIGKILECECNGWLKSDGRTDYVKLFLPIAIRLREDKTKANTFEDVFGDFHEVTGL
Procedure: DNA ligation reactions were set up using T4 DNA ligase (Life Technologies, Inc, Gaithesburg, Md.) using a linearized plasmid template (pET21a, Novagen, Madison, Wis.) and a DNA insert. The reagents were used according to manufacturer's instructions. Escherichia coli DH10B competent cells were transformed with the ligated products and transformed cells were plated on Clondisc (Clontech, Palo Alto, Calif.) with appropriate antibiotic (ampicillin at 50 μg/mL). After incubation of plates at 37° C. for 16 hours to 18 hours, the resulting colonies were counted and analysed for plasmid by miniprep and restriction digest. […] In addition, all of the plasmids isolated from these plates contained the same insert as verified by restriction digest and DNA sequencing.
In addition to transformation and plating with the ligation mix, the ligated products were used as DNA template in a PCR reaction containing primers flanking the insert DNA on the plasmid template (T7 promoter and T7 terminator primers, Novagen).

[2] = Laser stability / photobleaching of dye solution on repeated laser exposure; type: physicochemical; details: SDA 8080 (0.2 mg/mL), surfactant 20 wt %; 25 exposures
Procedure: An 813-nm diode laser source at 1.2W (1.9A) (Opto Power Corp., Tucson, Ariz. ) was used to heat a 10μL volume of near-IR dye at a concentration (0.1 mg/mL for 785 WS, 0.2 mg/iL for SDA 8080) to yield a 35° C. rise in temperature. The laser was manually turned on long enough for the temperature in a 10-μL well to increase by 35° C. (1-3 seconds) and was manually turned off when that level was attained. The temperature data was obtained using a thermocouple in the well, and the transmittance data was obtained via a power meter whose signals were digitized and graphically interpreted.
In another experiment, the 10 μL well was used to see if the dye/surfactant mixture could withstand laser cycling over a period of 30 cycles. The laser power was systematically varied from 60° C. to 94° C., 30 times.
Unlike in Example 8, some dyes and dye/surfactant complexes undergo photodegradation when exposed to laser beam. […] Specifically, in the case of 785 WS/BRIJ-97, the addition of ascorbic acid (typically 5 mg/mL) helped reduce the amount of photobleaching from 100% to 20% after 30 cycles. In some circumstances, rapid/controlled photodegradation may be desired. […] This would allow DNA tags (fluorescent or vis/IR) to be monitored at the end of the PCR reaction.
Vitamin E-TPGS has both surfactant as well as antioxidant properties.

T1 sequence (P19821 whole entry, the tested form may be a part): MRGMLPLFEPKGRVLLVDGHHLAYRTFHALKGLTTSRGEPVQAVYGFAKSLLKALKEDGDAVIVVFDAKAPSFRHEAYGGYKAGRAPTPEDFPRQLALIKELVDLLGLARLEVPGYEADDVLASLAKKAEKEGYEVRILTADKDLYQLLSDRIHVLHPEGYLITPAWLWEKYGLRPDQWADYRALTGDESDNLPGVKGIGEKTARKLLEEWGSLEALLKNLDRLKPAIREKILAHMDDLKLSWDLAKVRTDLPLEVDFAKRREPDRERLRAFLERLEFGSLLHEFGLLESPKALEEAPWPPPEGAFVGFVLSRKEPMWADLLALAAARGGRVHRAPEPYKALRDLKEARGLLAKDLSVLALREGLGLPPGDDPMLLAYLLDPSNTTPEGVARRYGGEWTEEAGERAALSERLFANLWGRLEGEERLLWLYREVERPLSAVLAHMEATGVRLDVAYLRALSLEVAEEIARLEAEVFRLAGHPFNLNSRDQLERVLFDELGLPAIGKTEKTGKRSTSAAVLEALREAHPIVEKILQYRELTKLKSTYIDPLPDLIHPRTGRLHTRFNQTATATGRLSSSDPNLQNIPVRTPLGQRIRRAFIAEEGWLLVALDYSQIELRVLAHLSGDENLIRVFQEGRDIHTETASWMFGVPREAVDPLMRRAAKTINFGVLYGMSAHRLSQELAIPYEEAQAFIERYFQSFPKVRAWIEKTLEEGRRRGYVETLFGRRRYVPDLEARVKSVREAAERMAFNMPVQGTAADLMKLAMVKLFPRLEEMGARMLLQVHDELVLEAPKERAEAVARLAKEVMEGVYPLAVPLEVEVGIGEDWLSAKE
Sequence of Taq polymerase (P19821 whole entry): as the sequence (P19821 whole entry, the tested form may be a part) above

With CCCCCCCCCCCC(=O)OCCOCCOCCOCCOCCOCCOCCOCCOCCOCCOCCOCCOCCOCCOCCOCCOCCOCCOCCOCCOCC(OCCOCCOCCOCCOCCOCCOCCOCCOCCOCCOCCOCCOCCOCCOCCOCCOCCOCCOCCOCCO)C1OCC(OCCOCCOCCOCCOCCOCCOCCOCCOCCOCCOCCOCCOCCOCCOCCOCCOCCOCCOCCOCCO)C1OCCOCCOCCOCCOCCOCCOCCOCCOCCOCCOCCOCCOCCOCCOCCOCCOCCOCCOCCOCCO (stereo not shown) [TWEEN-20, Polyoxyethylene (20) sorbitan monolaurate] the “PCR Product” value ([1]; 785 WS 0.1 mg/mL, surfactant 0.1 wt %) was 0 ng/µL, the “PCR Product” value ([1]; 785 WS 0.1 mg/mL, surfactant 0.5 wt %) was 12.7 ng/µL and the “PCR Product” value ([1]; 785 WS 0.1 mg/mL, surfactant 1 wt %) was 19 ng/µL. The “PCR Product” value ([1]; 785 WS 0.1 mg/mL, surfactant 2 wt %) was 23.7 ng/µL, the “PCR Product” value ([1]; 785 WS 0.1 mg/mL, surfactant 4 wt %) was 24 ng/µL and the “PCR Product” value ([1]; SDA 8080 0.2 mg/mL, surfactant 0.1 wt %) was 27 ng/µL. The “PCR Product” value ([1]; SDA 8080 0.2 mg/mL, surfactant 0.5 wt %) was 29 ng/µL, the “PCR Product” value ([1]; SDA 8080 0.2 mg/mL, surfactant 1 wt %) was 31 ng/µL and the “PCR Product” value ([1]; SDA 8080 0.2 mg/mL, surfactant 2 wt %) was 22 ng/µL. For the same molecule, the “PCR Product” value ([1]; SDA 8080 0.2 mg/mL, surfactant 4 wt %) was 19 ng/µL, the “effect of addition of surfactant on dye-inhibited Taq polymerase” value ([1]; Taq polymerases inhibited by 785 WS and SDA 8080) was “restored the activity of the enzyme” and the “PCR Product” value ([1]; surfactant 4 wt %, 785 WS 0 mg/mL (no dye), data from a different experiment under identical PCR conditions) was 28* ng/μL. For the same molecule, the “PCR Product” value ([1]; surfactant 4 wt %, SDA 8080 0 mg/mL (no dye), data from a different experiment under identical PCR conditions) was 28* ng/μL, the “effect of addition of surfactant on dye-inhibited quantitative PCR assay” value (Taq polymerase) was “restored the activity of the assay” and the “effect of surfactant on dye-inhibited ligase activity (colonies)” value (T4 DNA ligase) was “restored the activity of ligase”. For the same molecule, the “Laser Stability” value [2] was “+ (less than a 20% degradation in dye absorbance over a period of 25 exposures)”.
